Measured values published in paper PMC9897792, “Discovery of novel 2-(4-(benzyloxy)-5-(hydroxyl) phenyl) benzothiazole derivatives as multifunctional MAO-B inhibitors for the treatment of Parkinson’s disease” (Journal of Enzyme Inhibition and Medicinal Chemistry, 2023).
Values joined by “and” are separate entries in the source; they are usually repeats but may differ in a detail not shown here. Equal entries are not always repeated. Where two headings read alike, the source gives them in different places.

What was measured:
MAO-B [1] = target: T1, MAO-B (Homo sapiens, UniProt P27338); test: MAO-B inhibition, kynuramine method; type: biochemical
T1 sequence (P27338 1-520): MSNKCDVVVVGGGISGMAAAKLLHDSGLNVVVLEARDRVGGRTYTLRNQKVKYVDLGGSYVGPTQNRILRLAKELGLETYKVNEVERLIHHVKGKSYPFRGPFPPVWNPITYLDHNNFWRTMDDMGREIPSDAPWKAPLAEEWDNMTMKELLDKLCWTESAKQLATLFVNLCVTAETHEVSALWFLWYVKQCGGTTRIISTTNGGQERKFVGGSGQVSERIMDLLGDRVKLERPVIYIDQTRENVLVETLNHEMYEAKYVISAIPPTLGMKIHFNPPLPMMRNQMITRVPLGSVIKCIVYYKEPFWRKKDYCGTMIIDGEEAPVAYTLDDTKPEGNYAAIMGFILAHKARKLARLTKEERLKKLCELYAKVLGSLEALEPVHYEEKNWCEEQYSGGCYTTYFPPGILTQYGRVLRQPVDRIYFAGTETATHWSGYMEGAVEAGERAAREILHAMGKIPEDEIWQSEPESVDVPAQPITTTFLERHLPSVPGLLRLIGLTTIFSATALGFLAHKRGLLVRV

[2] = Oxygen radical absorbance capacity assay with fluorescein (ORAC-FL); conditions: Trolox as standard
Method: Oxygen radical absorbance capacity assay which used fluorescein (ORAC-FL) was performed to measure the antioxidant activities of 2-(4-(benzyloxy)-5-(hydroxyl) phenyl) benzothiazole derivatives. […] It reflected that introduction of alkyl substituents on benzyloxy ring was more beneficial for the improvement of in vitro antioxidant activity. However, the position and number of substituents seem to have little influence on the antioxidative activities.
Test compounds solution (20 µL, 10 µM) and fluorescein solution (120 µL, 250 nM) were added to a black 96-wells plate in order. The mixture was incubated for 15 min at 37 °C. Then, AAPH solution (60 µL, 40 mM) was added through an automatic sampler. The fluorescence was recorded with excitation and emission wavelengths at 485 and 535 nm on the multifunctional enzyme marker (Thermo Scientific), and the area under the curve (AUC) was calculated automatically. Trolox was used as a reference, and the antioxidant activities of the compounds were expressed as Trolox equivalent. The test compound solution was replaced with PBS (20 µL) in blank well. The antioxidant activities of the test compounds were calculated by the formula: [(AUCsample − AUCblank)/(AUCtrolox − AUCblank)] × [(Trolox concentration/test sample concentration)].

MAO-B [3] = target: T1, MAO-B; test: Reversibility study of MAO-B inhibition by dialysis method; type: biochemical; conditions: for MAO-B inhibitory mode: classified by MAO-B catalytic activity in dialysis group; for MAO-B catalytic activity, undialysis group / MAO-B catalytic activity, dialysis group: test compound 4 × IC50; for MAO-B catalytic activity, undialysis group: 4 °C for 24 h without dialysis; for MAO-B catalytic activity, dialysis group: dialysis 24 h
Method: The mixture was incubated at 37 °C for 30 min and transferred to dialysis bag (MWCO: 10 000, flattening width: 24 mm, length: 8–10 cm). Then, this dialysis bag was placed in 200 ml PBS for 24 h, and the outer PBS was replaced with fresh at 3 and 7 h, respectively. As for the undialysis group, the mixture was placed at 4 °C for 24 h. After dialysis, the mixtures (40 µL) in the dialysis bag were taken out to measure the catalytic activity, and the test method was similar with the inhibition experiment of MAOs. […] The test compound solution was replaced with PBS buffer at the same volume in the blank group.

MAO-A = target: T2, MAO-A (Homo sapiens, UniProt P21397); test: MAO-A inhibition, kynuramine method; type: biochemical; conditions: for inhibition at 10 µM: read-out: %Inhibition MAO-A
T2 sequence (P21397 1-527): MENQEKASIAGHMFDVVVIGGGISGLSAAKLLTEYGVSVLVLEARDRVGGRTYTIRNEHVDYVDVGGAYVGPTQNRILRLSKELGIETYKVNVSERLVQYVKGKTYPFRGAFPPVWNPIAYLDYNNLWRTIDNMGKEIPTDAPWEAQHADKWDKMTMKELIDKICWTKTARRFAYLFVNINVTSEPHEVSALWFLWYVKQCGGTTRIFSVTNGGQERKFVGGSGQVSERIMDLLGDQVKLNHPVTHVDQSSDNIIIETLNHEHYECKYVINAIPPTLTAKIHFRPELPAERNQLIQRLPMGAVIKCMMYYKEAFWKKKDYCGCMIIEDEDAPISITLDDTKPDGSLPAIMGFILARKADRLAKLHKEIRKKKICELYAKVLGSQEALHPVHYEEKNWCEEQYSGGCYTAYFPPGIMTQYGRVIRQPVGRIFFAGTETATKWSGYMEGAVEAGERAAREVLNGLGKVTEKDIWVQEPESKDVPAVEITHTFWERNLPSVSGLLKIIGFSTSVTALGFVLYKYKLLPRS

[4] = PAMPA-BBB literature values ref 1 (Di et al., Eur. J. Med. Chem. 2003, 38, 223); cited from earlier work
[5] = at the concentration of 10.0 μM, n.a. = no active, percent inhibition <5.0%

| Structure (SMILES) | IC50 (MAO-B [1]) | ORAC [2] | inhibition at 10 µM (MAO-A; [5]) | further results |
| --- | --- | --- | --- | --- |
| Oc1cc(OCc2cccc(C(F)(F)F)c2)ccc1-c1nc2ccccc2s1 [3f, 2-(Benzo[d]thiazol-2-yl)-5-((3-(trifluoromethyl)benzyl)oxy)phenol] | 951 ± 62 nM | 2.25 ± 0.07 Trolox equivalents | – | – |
| C[C@H](NCc1ccc(OCc2cccc(F)c2)cc1)C(N)=O [Safinamide] | – | 1.12 ± 0.01 Trolox equivalents | – | MAO-B inhibitory mode (MAO-B [3]): reversible (reversible inhibition: MAO-B catalytic activity ≥ 80%); MAO-B catalytic activity, undialysis group (MAO-B [3]): 39.3%; MAO-B catalytic activity, dialysis group (MAO-B [3]): 93.0%; inhibition at 10 µM (MAO-A): 24.9 ± 0.04% |
| O=[N+]([O-])c1ccc(COc2ccc(-c3nc4ccccc4s3)c(O)c2)cc1 [3l, 2-(Benzo[d]thiazol-2-yl)-5-((4-nitrobenzyl)oxy)phenol] | 784 ± 28 nM | 2.14 ± 0.06 Trolox equivalents | 25.16 ± 0.13% | – |
| Cc1ccc(COc2ccc(-c3nc4ccccc4s3)c(O)c2)cc1 [3j, 2-(Benzo[d]thiazol-2-yl)-5-((4-methylbenzyl)oxy)phenol] | 1940 ± 78 nM | 2.39 ± 0.14 Trolox equivalents | 34.32 ± 0.09% | – |
| COc1cccc(COc2ccc(-c3nc4ccccc4s3)c(O)c2)c1 [3g, 2-(Benzo[d]thiazol-2-yl)-5-((3-methoxybenzyl)oxy)phenol] | 1520 ± 97 nM | 2.30 ± 0.04 Trolox equivalents | – | – |
| Oc1cc(OCc2ccc(F)c(Cl)c2)ccc1-c1nc2ccccc2s1 [3o, 2-(Benzo[d]thiazol-2-yl)-5-((3-chloro-4-fluorobenzyl)oxy)phenol] | 521 ± 7 nM | 2.27 ± 0.05 Trolox equivalents | 49.9 ± 0.53% | – |
| Oc1cc(OCc2ccc(Cl)c(Cl)c2)ccc1-c1nc2ccccc2s1 [3n, 2-(Benzo[d]thiazol-2-yl)-5-((3,4-dichlorobenzyl)oxy)phenol] | 970 ± 11 nM | 2.21 ± 0.09 Trolox equivalents | – | IC50 (MAO-A): 9800 ± 190 nM |
| C#CCN[C@@H]1CCc2ccccc21 [Rasagiline] | – | – | – | MAO-B inhibitory mode (MAO-B [3]): irreversible (irreversible inhibition: MAO-B catalytic activity ≤ 20%); MAO-B catalytic activity, undialysis group (MAO-B [3]): 2.7%; MAO-B catalytic activity, dialysis group (MAO-B [3]): 4.2% |
| Oc1cc(OCc2cccc(Cl)c2)ccc1-c1nc2ccccc2s1 [3e, 2-(Benzo[d]thiazol-2-yl)-5-((3-chlorobenzyl)oxy)phenol] | 1050 ± 83 nM | 2.31 ± 0.07 Trolox equivalents | 31.6 ± 0.28% | – |
| Oc1cc(OCc2ccc(Cl)cc2)ccc1-c1nc2ccccc2s1 [3i, 2-(Benzo[d]thiazol-2-yl)-5-((4-chlorobenzyl)oxy)phenol] | 314 ± 10 nM | 2.23 ± 0.06 Trolox equivalents | 47.14 ± 0.21% | – |
| Oc1cc(OCc2ccccc2F)ccc1-c1nc2ccccc2s1 [3b, 2-(Benzo[d]thiazol-2-yl)-5-((2-fluorobenzyl)oxy)phenol] | 1670 ± 146 nM | 2.32 ± 0.02 Trolox equivalents | 14.25 ± 0.07% | – |
| Oc1cc(OCc2ccccc2Cl)ccc1-c1nc2ccccc2s1 [3c, 2-(Benzo[d]thiazol-2-yl)-5-((2-chlorobenzyl)oxy)phenol] | 2900 ± 31 nM | 2.26 ± 0.09 Trolox equivalents | 19.58 ± 0.06% | – |
| O=C1Nc2ccc(Cl)cc2C(c2ccccc2)=NC1O (centres unmarked) [Oxazepam] | – | – | – | Pe (Bibl) [4]: 10 ×10⁻⁶ cm/s |
| Oc1cc(OCc2ccc(F)c(F)c2)ccc1-c1nc2ccccc2s1 [3m, 2-(Benzo[d]thiazol-2-yl)-5-((3,4-difluorobenzyl)oxy)phenol] | 423 ± 9 nM | 2.24 ± 0.11 Trolox equivalents | 47.52 ± 0.36% | – |
| CN1C(C(=O)Nc2ccccn2)=C(O)c2ccccc2S1(=O)=O [Piroxicam] | – | – | – | Pe (Bibl) [4]: 2.5 ×10⁻⁶ cm/s |
| Oc1cc(OCc2ccccc2)ccc1-c1nc2ccccc2s1 [3a, 2-(Benzo[d]thiazol-2-yl)-5-(benzyloxy)phenol] | 3930 ± 259 nM | 2.13 ± 0.05 Trolox equivalents | 24.83 ± 0.11% | – |
| Cn1c(=O)c2[nH]cnc2n(C)c1=O [Theophylline] | – | – | – | Pe (Bibl) [4]: 0.12 ×10⁻⁶ cm/s |
| Oc1cc(OCc2cccc(F)c2)ccc1-c1nc2ccccc2s1 [3d, 2-(Benzo[d]thiazol-2-yl)-5-((3-fluorobenzyl)oxy)phenol] | 526 ± 24 nM | 2.24 ± 0.10 Trolox equivalents | 18.41 ± 0.05% | – |
| CC(C)(C)c1ccc(COc2ccc(-c3nc4ccccc4s3)c(O)c2)cc1 [3k, 2-(Benzo[d]thiazol-2-yl)-5-((4-(tert-butyl)benzyl)oxy)phenol] | 3407 ± 32 nM | 2.48 Trolox equivalents and 2.48 ± 0.13 Trolox equivalents | – | – |
